Results: PubChem BioAssay AID248 (DTP/NCI, 2004)
Where “and” joins values, the source holds several entries; their conditions need not be identical. Equal values may be shown once. Inconclusive results and toxic doses are left out. Cut-off read from the data, not from the text of the source: active = T/C of 150% or more; inactive = T/C below 125%.

Tested on: L1210 leukemia ip in BDF1 mice, survival T/C
Experiment: NCI In Vivo Anticancer Drug Screen. Data for tumor model L1210 Leukemia (intraperitoneal) in B6D2F1 (BDF1) mice
Conditions: endpoint: mean survival time, higher = longer survival
Summary of the method: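 Ratio derived from survival: compound-dosed mice over vehicle-dosed mice, all bearing a transplantable tumor.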

[1] = dose: 100.0 mg/kg/injection, schedule: Q04DX003 (ip), vehicle: Klucel (hydroxypropylcellulose) (HPC)
[2] = dose: 100.0 mg/kg/injection, schedule: Q01DX009 (ip), vehicle: Klucel (hydroxypropylcellulose) (HPC)
[3] = dose: 200.0 mg/kg/injection, schedule: Q01DX009 (ip), vehicle: Klucel (hydroxypropylcellulose) (HPC)
[4] = dose: 100.0 mg/kg/injection, schedule: Q01DX001 (ip), vehicle: saline
[5] = dose: 200.0 mg/kg/injection, schedule: Q01DX001 (ip), vehicle: saline
[6] = dose: 400.0 mg/kg/injection, schedule: Q01DX001 (ip), vehicle: saline
[7] = dose: 200.0 mg/kg/injection, schedule: Q04DX003 (ip), vehicle: Klucel (hydroxypropylcellulose) (HPC)
[8] = dose: 400.0 mg/kg/injection, schedule: Q01DX009 (ip), vehicle: Klucel (hydroxypropylcellulose) (HPC)
[9] = dose: 400.0 mg/kg/injection, schedule: Q04DX003 (ip), vehicle: Klucel (hydroxypropylcellulose) (HPC)
[10] = dose: 100.0 mg/kg/injection, schedule: Q01DX001 (ip), vehicle: carboxymethylcellulose (CMC)
[11] = dose: 200.0 mg/kg/injection, schedule: Q01DX001 (ip), vehicle: carboxymethylcellulose (CMC)
[12] = dose: 400.0 mg/kg/injection, schedule: Q01DX001 (ip), vehicle: carboxymethylcellulose (CMC)

Measured: T/C

Fc1c(F)c(F)c(S/C=C/c2ccccc2)c(F)c1F
inactive: dose: 100.0 mg/kg/injection, schedule: Q01DX001 (ip), vehicle: Klucel (hydroxypropylcellulose) (HPC) 96 % of control | dose: 200.0 mg/kg/injection, schedule: Q01DX001 (ip), vehicle: Klucel (hydroxypropylcellulose) (HPC) 118 % of control | dose: 400.0 mg/kg/injection, schedule: Q01DX001 (ip), vehicle: Klucel (hydroxypropylcellulose) (HPC) 105 % of control

CN(C(=O)c1ccccc1)N(C)C(=O)c1ccccc1
inactive: dose: 25.0 mg/kg/injection, schedule: Q01DX009 (ip), vehicle: Klucel (hydroxypropylcellulose) (HPC) 106 % of control | dose: 50.0 mg/kg/injection, schedule: Q01DX009 (ip), vehicle: Klucel (hydroxypropylcellulose) (HPC) 95 % of control | dose: 50.0 mg/kg/injection, schedule: Q04DX003 (ip), vehicle: Klucel (hydroxypropylcellulose) (HPC) 98 % of control | [1] 110 % of control

O=C(Nc1ccc(C2=NCCN2)cc1)c1ccc(Cl)c(C(=O)Nc2ccc(C3=NCCN3)cc2)c1
inactive: dose: 2.0 mg/kg/injection, schedule: Q01DX Z (ip), vehicle: carboxymethylcellulose (CMC) 97 % of control | dose: 3.75 mg/kg/injection, schedule: Q01DX Z (ip), vehicle: water 102 % of control | dose: 4.0 mg/kg/injection, schedule: Q01DX Z (ip), vehicle: carboxymethylcellulose (CMC) 98 % of control | dose: 7.5 mg/kg/injection, schedule: Q01DX Z (ip), vehicle: carboxymethylcellulose (CMC) 106 % of control | dose: 7.5 mg/kg/injection, schedule: Q01DX Z (ip), vehicle: water 102 % of control | dose: 15.0 mg/kg/injection, schedule: Q01DX Z (ip), vehicle: carboxymethylcellulose (CMC) 95 % of control | dose: 15.0 mg/kg/injection, schedule: Q01DX Z (ip), vehicle: saline 115 % of control and 92 % of control | dose: 15.0 mg/kg/injection, schedule: Q01DX Z (ip), vehicle: water 106 % of control | dose: 30.0 mg/kg/injection, schedule: Q01DX Z (ip), vehicle: saline 118 % of control and 97 % of control | dose: 60.0 mg/kg/injection, schedule: Q01DX Z (ip), vehicle: saline 100 % of control

C#CCCCCCC#[C][Hg][C]#CCCCCCC#C.C#CCCCCCC#[C][Hg][C]#CCCCCCC#C
inactive: dose: 75.0 mg/kg/injection, schedule: Q01DX001 (ip), vehicle: saline 90 % of control | dose: 150.0 mg/kg/injection, schedule: Q01DX001 (ip), vehicle: saline 92 % of control | dose: 300.0 mg/kg/injection, schedule: Q01DX001 (ip), vehicle: saline 95 % of control

OCC1OC(n2cnc3c(SCc4ccccc4)nc(Cl)cc32)C(O)C1O (centres undefined)
inactive: dose: 100.0 mg/kg/injection, schedule: Q01DX005 (ip), vehicle: saline 95 % of control | dose: 200.0 mg/kg/injection, schedule: Q01DX005 (ip), vehicle: saline 93 % of control

CSc1ccc(NC(=O)Nc2ccc(Cl)cc2C(=O)c2ccccc2)cc1
inactive: [2] 91 % of control | [3] 88 % of control

O=[N+]([O-])c1ccc(N/N=C(\c2ccccc2)c2ccc(O)cc2O)c([N+](=O)[O-])c1
inactive: dose: 100.0 mg/kg/injection, schedule: Q01DX001 (ip), vehicle: other 91 % of control | dose: 100.0 mg/kg/injection, schedule: Q04DX003 (ip), vehicle: other 95 % of control | dose: 200.0 mg/kg/injection, schedule: Q01DX001 (ip), vehicle: other 91 % of control | dose: 200.0 mg/kg/injection, schedule: Q04DX003 (ip), vehicle: other 96 % of control | dose: 400.0 mg/kg/injection, schedule: Q01DX001 (ip), vehicle: other 95 % of control | dose: 400.0 mg/kg/injection, schedule: Q04DX003 (ip), vehicle: other 96 % of control

C#CCNCc1ccccc1
inactive: dose: 50.0 mg/kg/injection, schedule: Q01DX009 (ip), vehicle: saline with Tween-80 101 % of control and 92 % of control | [4] 100 % of control | dose: 100.0 mg/kg/injection, schedule: Q01DX009 (ip), vehicle: saline with Tween-80 101 % of control and 106 % of control | dose: 100.0 mg/kg/injection, schedule: Q04DX002 (ip), vehicle: saline 94 % of control and 96 % of control and 108 % of control | dose: 100.0 mg/kg/injection, schedule: Q04DX003 (ip), vehicle: saline 98 % of control | [5] 96 % of control | dose: 200.0 mg/kg/injection, schedule: Q04DX002 (ip), vehicle: saline 101 % of control (2×) and 112 % of control | dose: 200.0 mg/kg/injection, schedule: Q04DX003 (ip), vehicle: saline 101 % of control | [6] 98 % of control

CCN(CC)CCN=Cc1ccccc1OC
inactive: [4] 98 % of control | [5] 101 % of control

COc1ccc(/C=C(C(=O)O)/C(=C/c2ccc(OC)c(OC)c2)C(=O)O)cc1OC
inactive: [2] 96 % of control | [1] 95 % of control | [3] 105 % of control | [7] 96 % of control | [8] 91 % of control | [9] 98 % of control

COc1cc2cc3c4cc(OC)c(OC)cc4cc[n+]3c(/C=C/c3cccc(O)c3)c2cc1OC
inactive: dose: 25.0 mg/kg/injection, schedule: Q04DX002 (ip), vehicle: carboxymethylcellulose (CMC) 97 % of control and 108 % of control | dose: 50.0 mg/kg/injection, schedule: Q04DX002 (ip), vehicle: carboxymethylcellulose (CMC) 101 % of control | [10] 102 % of control and 110 % of control | [11] 110 % of control and 119 % of control | [12] 98 % of control and 114 % of control | dose: 400.0 mg/kg/injection, schedule: Q04DX002 (ip), vehicle: carboxymethylcellulose (CMC) 105 % of control and 115 % of control

O=C(O)CSC(=S)SCC(=O)O
inactive: [2] 100 % of control | [1] 100 % of control | [3] 97 % of control | [7] 105 % of control | [9] 101 % of control

COc1cc(Cl)ccc1NC(=O)Oc1ccc(F)cc1Cl
inactive: [2] 104 % of control | [3] 108 % of control | [8] 106 % of control

CC1(C)N=C(N)N=C(N)N1c1cccc(OCCOc2ccc([N+](=O)[O-])cc2)c1
inactive: [4] 101 % of control | [5] 95 % of control

CC(C)N(C(=O)Nc1ccccc1Cl)c1ccccc1
inactive: [2] 96 % of control | [1] 92 % of control | [3] 92 % of control | [7] 100 % of control | [8] 97 % of control | [9] 92 % of control

CC(Oc1cc(Cl)c(Cl)cc1Cl)C(=O)ON(C)C (centres undefined)
inactive: [2] 100 % of control | [3] 100 % of control

O=C(CC1(c2ccccc2)C(=O)c2ccccc2C1=O)c1ccccc1
inactive: [10] 94 % of control | [11] 91 % of control | [12] 94 % of control

Cc1cccc(C2=N/C(=C\c3ccc4c(c3)OC(O)O4)C(=O)O2)c1 (centres undefined)
inactive: dose: 100.0 mg/kg/injection, schedule: Q04DX002 (ip), vehicle: Klucel (hydroxypropylcellulose) (HPC) 97 % of control | dose: 200.0 mg/kg/injection, schedule: Q04DX002 (ip), vehicle: Klucel (hydroxypropylcellulose) (HPC) 104 % of control | dose: 400.0 mg/kg/injection, schedule: Q04DX002 (ip), vehicle: Klucel (hydroxypropylcellulose) (HPC) 104 % of control

COc1ccc(Br)c(CCC(C)C)c1OC
inactive: [2] 92 % of control | [1] 108 % of control | [3] 95 % of control | [7] 108 % of control | [8] 101 % of control | [9] 104 % of control

ClC1(Cl)c2ccccc2-c2ccccc21
inactive: [4] 103 % of control | [5] 113 % of control | [6] 110 % of control

CC1CCOC(C)(CO)O1 (centres undefined)
inactive: dose: 100.0 mg/kg/injection, schedule: Q04DX002 (ip), vehicle: saline with Tween-80 98 % of control | dose: 200.0 mg/kg/injection, schedule: Q04DX002 (ip), vehicle: saline with Tween-80 95 % of control | dose: 400.0 mg/kg/injection, schedule: Q04DX002 (ip), vehicle: saline with Tween-80 98 % of control
